Our source for the TGI values is PubChem BioAssay (NCI).

Holding throughout (assay): NCI-60 cell line screen, 48 h
Test [1] concerns A498 renal.
Test [2] deals with CAKI-1 renal.
Test [3] concerns CCRF-CEM leukemia.
Test [4] relates to COLO 205 colon.
For test [5], the system named is DLD-1 colon.
In test [6] the test system is HCT-116 colon.
The test system of test [7] is IGROV1 ovarian.
The subject of test [8] is K-562 leukemia.
Test [9] relates to M14 melanoma.
The subject of test [10] is NCI-H23 lung.
Test [11] deals with NCI-H522 lung.
Test [12] has as its system RXF 393 renal.
Test [13] has as its system SF-295 CNS.
For test [14], the system named is SK-OV-3 ovarian.
Test [15] relates to SW-620 colon.
For test [16], the system named is UO-31 renal.
Test [17] concerns EKVX NSCLC.
The subject of test [18] is HOP-62 NSCLC.
Test [19] deals with HS 578T breast.
Test [20] has as its system KM20L2 colon.

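Exposure lasted 48 hours, with cells grown in 96-well plates and compounds tested at five concentrations. Definition used: TGI = concentration required for complete inhibition of growth.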

For `COc1ccc([Se][Se]c2ccc(OC)cc2OC)c(OC)c1`, the TGI in test [1] was 53.5 µM; in test [2] it was 18.6 µM; in test [3] it was 5.29 µM; in test [4], above 100 µM; in [5], 8.72 µM; in test [6] it was 10.5 µM. For the same molecule, the TGI in test [7] came to 15.3 µM; in test [8], 7.94 µM; in test [9], 9.3 µM; in test [10] it was 15.3 µM; in [11], 4 µM; in [12], 6.27 µM. Besides, the TGI was 4.03 µM in test [13], 76.5 µM in [14], 7.04 µM in test [15] and 5.31 µM in [16].
Regarding `N#Cc1sc2c(c1OC(=O)c1ccc(Cl)cc1Cl)c(=O)n(-c1ccccc1)c(=S)n2-c1ccccc1`, the TGI was 61.2 µM in test [1]; 54.5 µM in test [2]; 26.7 µM in test [3]; 42.2 µM in test [4]; 65.1 µM in test [17]; 39.2 µM in test [6]. Moreover, the TGI in test [18] was 96.4 µM; in test [19] it was 89.6 µM; in [7], 38.6 µM; in [8], 68 µM; in test [9], 36.6 µM; in test [10], 50.8 µM. In addition, the TGI in test [11] was 7.3 µM; in test [12], 42 µM; in [13], 81.2 µM; in [14], above 100 µM; in [15] it was 72.7 µM; in test [16], 0.424 µM.
Regarding `CCO[C@H]1O[C@@H]2OC3(C)CCC4[C@H](C)CCC([C@H]1C)[C@]42OO3` (some centres not stated), the TGI was above 100 µM in test [1]; above 100 µM in test [2]; above 100 µM in test [3]; 25.5 µM in [4]; above 100 µM in test [17]; above 100 µM in test [6]. The TGI in [18], in [19], in test [7], in [8], in test [9] and in test [10] was above 100 µM in each case. In addition, the TGI in [11], in test [12], in test [13], in test [14], in test [15] and in test [16] was above 100 µM in each case.
For the molecule `CN(C)/C=C/c1c2c(nc3ccccc13)C(=O)c1cccnc1C2=O`, the TGI in [1] was 2.31 µM; in [2], above 38.7 µM; in test [3], 9.28 µM; in [4], 5.55 µM; in [17] it was 22.9 µM; in test [6], 0.697 µM. The TGI in test [18] was found to be 0.435 µM; in test [19], 4.65 µM; in [7], 4.16 µM; in [8], 3.75 µM; in test [9], 0.597 µM; in [10] it was 0.42 µM. The TGI worked out at 1.13 µM in test [11]; 3.48 µM in test [12]; 1.62 µM in [13]; 1.16 µM in [14]; 1.48 µM in test [15]; 3.02 µM in test [16].
As to `Cc1cccc2c(NCCN(C)C)c3cccc(C(=O)NCCN(C)C)c3nc12`, the TGI in [1] was 4.06 µM; in test [2], 4.92 µM; in [3], 0.813 µM; in [4], 1.61 µM; in test [17], 4.29 µM; in test [6], 4.87 µM. In addition, the TGI was determined as 3.93 µM in test [18]; 1.82 µM in test [19]; 6.64 µM in test [7]; 0.065 µM in [8]; 2.44 µM in [9]; 1.3 µM in test [10]. In addition, the TGI in test [11] was 0.114 µM; in [12], 2.54 µM; in [13] it was 3.77 µM; in test [14], 27.1 µM; in [15] it was 7.78 µM; in test [16] it was 1.63 µM.
`O=C(Nc1ccccc1)c1cc(S(=O)(=O)N2CCNC2=O)c(S)cc1Cl`: the TGI in [1], in test [2], in test [3], in [4], in [17] and in [6] was above 100 µM each time. For the same molecule, the TGI in test [18], in [19], in [7], in [8], in [9] and in test [10] was above 100 µM each time. For the same molecule, the TGI in [11], in test [12], in test [13], in test [14], in [15] and in [16] was above 100 µM throughout.
As to `Cc1nc(C)c(N2CCN(S(N)(=O)=O)CC2)c(=O)[nH]1`, the TGI in test [1], in [2], in test [3], in test [4], in test [17] and in test [6] was above 100 µM throughout. The TGI in test [18], in [19], in [7], in test [8], in test [9] and in test [10] was above 100 µM each time. Further, the TGI in test [11], in test [12], in [13], in [14], in test [15] and in [16] was above 100 µM in each case.
For the molecule `Cn1c2ccccc2c2c3c(c4c5ccccc5n(C5OC(CO)C(O)C(O)C5O)c4c21)C(=O)OC3=O` (configuration not stated), the TGI in [1], in test [2], in [3], in test [4], in test [17] and in test [6] was above 100 µM each time. Also, the TGI in [18], in [19], in test [7], in test [8], in test [9] and in test [10] was above 100 µM in each case. In addition, the TGI in test [11], in test [12], in test [13], in [14], in [15] and in test [16] was above 100 µM throughout.
Take `COCN1C(=N)C(C(=O)OC(C)(C)C)=C2C=C(O)C=CC21C` (configuration not stated): the TGI amounted to 36.9 µM in test [1]; 28.5 µM in test [2]; 50.7 µM in test [3]; 17.5 µM in test [4]; 37.9 µM in [17]; 20.7 µM in test [6]. Further, the TGI in [18] was 75.2 µM; in test [19], 82.9 µM; in [7], 28.2 µM; in test [8], above 100 µM; in test [9] it was 29.5 µM; in test [10], 30.2 µM. For the same molecule, the TGI in test [11] is 13.5 µM; in test [12], 19.3 µM; in test [13] it was above 100 µM; in [14], 84 µM; in test [15], 17.5 µM; in [16], 26.4 µM.
Turning to `C/C=C\C(CC(=O)NCCC1CN(C(=O)OCc2ccccc2)c2ccccc21)CC(=O)OC` (configuration not stated), the TGI in [1], in [2], in test [3], in test [4], in [17] and in [6] was above 100 µM throughout. Also, the TGI in [18], in test [19], in test [7], in [8], in test [9] and in test [10] was above 100 µM each time. Moreover, the TGI in test [11], in [12], in test [13], in [14], in [15] and in [16] was above 100 µM in each case.
Turning to `N#Cc1ccc(OCCSCCCCCCCCCCSCCOc2ccc(C#N)cc2)cc1`, the TGI in test [1], in test [3], in test [4], in [17], in test [18] and in test [7] was above 100 µM in each case. The TGI in [8], in [20], in [9], in [10], in test [11] and in [12] was above 100 µM in each case. Besides, the TGI in test [13], in test [14], in [15] and in [16] was above 100 µM throughout.
With `COC(=O)c1sc2c(=O)c(C(=O)OC)c(C(=O)OC)sc2c(=O)c1C(=O)OC`, the TGI in test [1], in [2], in [3], in test [4], in test [17] and in test [6] was above 100 µM in each case. Further, the TGI in [18], in test [19], in test [7], in [8], in test [9] and in test [10] was above 100 µM in each case. In addition, the TGI is 65.2 µM in [11]; above 100 µM in test [12]; above 100 µM in [13]; above 100 µM in [14]; above 100 µM in test [15]; above 100 µM in test [16].
